Patent US12180226B2, “Spirotricycle RIPK1 inhibitors and methods of uses thereof” (Merck Sharp & Dohme LLC, priority 2021, dated 2024)
pEC50: −log10 of the molar value. Structures can show the parent of a compound that is named as a salt.

Target: RIPK1 (recombinant GST-RIPK1 kinase domain, residues 1-327) (Homo sapiens (Human), UniProt Q13546)
Assay: RIPK1-ADP-Glo Enzymatic Assay
Format: biochemical
Settings: ADP-Glo; 25 nM GST-RIPK1, 300 μM ATP; assay lower limit ~25 nM; read-out: RIPK1 V0 Ec50
Method in brief: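 Enzyme from baculovirus-infected Sf21 cells, 25 nM final, was pre-incubated 30 min at ambient temperature with compound (ten-point, 1:3 dilution from 100000 nM, 1% DMSO), then reacted 150 min with 300 μM ATP and 3 μM dephosphorylated MBP. ADP was read by luminescence; EC50 from four-parameter fit.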

RIPK1 (recombinant GST-RIPK1 kinase domain, residues 1-327), sequence (Q13546 1-327): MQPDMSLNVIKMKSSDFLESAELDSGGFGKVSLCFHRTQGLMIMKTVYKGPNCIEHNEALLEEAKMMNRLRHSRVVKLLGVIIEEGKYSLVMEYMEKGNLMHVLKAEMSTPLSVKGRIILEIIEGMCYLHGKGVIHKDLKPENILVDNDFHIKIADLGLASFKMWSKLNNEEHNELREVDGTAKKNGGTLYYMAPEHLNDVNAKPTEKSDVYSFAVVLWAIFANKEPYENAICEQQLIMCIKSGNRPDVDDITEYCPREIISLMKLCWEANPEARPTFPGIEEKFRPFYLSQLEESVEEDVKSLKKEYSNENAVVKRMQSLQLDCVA

| SMILES | pEC50 |
| --- | --- |
| O=C1N2[C@H](OC13CCN(c1ccnc4c(F)cnn14)CC3)[C@@H](F)C[C@H]2c1ccccc1 [Example 9.1, (5′S,7′S,7a′R)-7′-Fluoro-1-(3-fluoropyrazolo[1,5-a]pyrimidin-7-yl)-5′-phenyltetrahydro-3′H-spiro[piperidine-4,2′-pyrrolo[2,1-b]oxazol]-3′-one] | > 7.60 |
| O=C(c1ncn2ccccc12)N1CCC2(CC1)O[C@@H]1CC[C@@H](c3cc(F)cc(F)c3)N1C2=O [Example 5.74, (5′S,7a′R)-5′-(3,5-difluoro-phenyl)-1-(imidazo[1,5-a]-pyridine-1-carbonyl)tetra-hydro-3′H-spiro[piperi-dine-4,2′-pyrrolo[2,1-b]oxazol]-3′-one] | 7.37 |
| O=C(c1ncnc2c1CCC2)N1CCC2(CC1)O[C@@H]1CC[C@@H](c3cc(F)cc(F)c3)N1C2=O [Example 6.15, (5′S,7a′R)-5′-(3,5-difluorophenyl)-1-(6,7-dihydro-5H-cyclopenta[d]pyrim-idine-4-carbonyl)-tetrahydro-3′H-spiro [piperidine-4,2′-pyrrolo-[2,1-b][1,3]oxazol]-3′-one] | 6.26 |
| O=C(c1ccc(O)cc1F)N1CCC2(CC1)O[C@@H]1CC[C@@H](c3cc(F)cc(F)c3)N1C2=O [Example 5.55, (5′S,7a′R)-5′-(3,5-difluoro-phenyl)-1-(2-fluoro-4-hydroxybenzoyl)tetrahydro-3′H-spiro[piperidine-4,2′-pyrrolo[2,1-b]oxazol]-3'-one] | 7.58 |
| N#Cc1cnnc(N2CCC3(CC2)O[C@@H]2CC[C@@H](c4cc(F)cc(F)c4)N2C3=O)c1 [Example 4.19, 6-[(5′S,7a′R)-5′-(3,5-difluorophenyl)-3′-oxotetrahydro-1H,3′H-spiro[piperidine-4,2′-pyrrolo[2,1-b] [1,3]oxazol]-1-yl]pyridazine-4-carbonitrile] | 6.32 |
| N#Cc1ccc(C(=O)N2CCC3(CC2)O[C@@H]2CC[C@@H](c4cc(F)cc(F)c4)N2C3=O)c(Cl)c1 [Example 5.22, 3-chloro-4-((5′S,7a′R)-5′-(3,5-difluorophenyl)-3′-oxotetrahydro-3′H-spiro [piperidine-4,2′-pyrrolo-[2,1-b]oxazole]-1-carbon-yl)benzonitrile] | 6.41 |
| CC1C[C@@]2(CCN1C(=O)c1ccccc1)O[C@@H]1CC[C@@H](c3cccc(F)c3)N1C2=O (stereo partly drawn) [Example 6.160, (4R,5′S,7a′R)-1-(benzenecarbonyl)-5′-(3-fluorophenyl)-2-methyltetrahydro-3′H-spiro[piperidine-4,2′-pyrrolo[2,1-b] [1,3]oxazol]-3′-one] | > 7.60 |
| CC1CN(c2cccc3ncnn23)CCC12O[C@@H]1CC[C@@H](c3cc(F)cc(F)c3)N1C2=O (stereo partly drawn) [Example 4.265, (5′S,7a′R)-5′-(3,5-difluorophenyl)-3-methyl-1-([1,2,4]triazolo[1,5-a]pyridin-5-yl)tetrahydro-3′H-spiro[piperidine-4,2′-pyrrolo[2,1-b] [1,3]oxazol]-3′-one] | 7.55 |
| O=C(c1ccccc1Cl)N1CCC2(CC1)O[C@@H]1CC[C@@H](c3cc(F)cc(F)c3)N1C2=O [Example 6.78, (5′S,7a′R)-1-(2-chloro-benzene-1-carbonyl)-5′-(3,5-difluorophen-yl)tetrahydro-3′H-spiro[piperidine-4,2′-pyrrolo[2,1-b][1,3]-oxazol]-3′-one] | 7.43 |
| O=C1N2[C@@H](CC[C@H]2c2ccccc2F)OC12CCN(c1ccnc3ccnn13)CC2 [Example 4.103, (5′S,7a′R)-5′-(2-fluorophenyl)-1-(pyrazolo[1,5-a]pyrimidin-7-yl)tetrahydro-3′H-spiro[piperidine-4,2′-pyrrolo[2,1-b]oxazol]-3′-one] | > 7.60 |
| COC(=O)N1CCC2(CC1)O[C@@H]1CC[C@@H](c3cc(F)cc(F)c3)N1C2=O [Example 1.2, methyl (5′S,7a′R)-5′-(3,5-difluorophenyl)-3′-oxotetrahydro-1H,3′H-spiro[piperidine-4,2′-pyrrolo[2,1-b] [1,3]oxazole]-1-carboxylate] | 6.94 |
| O=C(c1cccc(F)c1)N1CCC2(CC1)O[C@@H]1CC[C@@H](c3cc(F)cc(F)c3)N1C2=O [Example 7.5, (5′S,7a′R)-5′-(3,5-difluorophenyl)-1-(3-fluorobenzene-1-carbonyl)tetrahydro-3′H-spiro[piperidine-4,2′-pyrrolo[2,1-b][1,3]oxazol]-3′-one] | > 7.60 |
| O=C1N2[C@@H](CC[C@H]2c2cc(F)cc(F)c2)OC12CCN(S(=O)(=O)c1cccc(F)c1)CC2 [Example 8.4, (5′S,7a′R)-5′-(3,5-difluorophenyl)-1-[(3-fluorophenyl)sulfonyl] tetrahydro-3′H-spiro[piperidine-4,2′-pyrrolo[2,1-b][1,3]oxazol]-3′-one] | 6.17 |
| O=C1N2[C@@H](CC[C@H]2c2cc(F)cc(F)c2)OC12CCN(c1ccnc(C(F)F)n1)CC2 [Example 4.9, (5′S,7a′R)-1-[2-(difluoromethyl)pyrimidin-4-yl]-5′-(3,5-difluorophenyl)tetrahydro-3′H-spiro[piperidine-4,2′-pyrrolo[2,1-b] [1,3]oxazol]-3′-one] | > 7.60 |
| Cc1ccn(-c2cccc(N3CCC4(CC3)O[C@@H]3CC[C@@H](c5ccccc5)N3C4=O)n2)n1 [Example 4.263, (5′S,7a′R)-1-[6-(3-methyl-1H-pyrazol-1-yl)pyridin-2-yl]-5′-phenyltetrahydro-3′H-spiro[piperidine-4,2′-pyrrolo[2,1-b] [1,3]oxazol]-3′-one] | 7.58 |
| O=C1N2[C@@H](CC[C@H]2c2cc(F)cc(F)c2)OC12CCN(c1cccc3ncnn13)CC2 [Example 13.2, (5′S,7a′R)-1-([1,2,4]triazolo[1,5-a]pyridin-5-yl)-5′-(3,5-difluorophenyl)tetrahydro-3′H-spiro[piperidine-4,2′-pyrrolo[2,1-b]oxazol]-3′-one, TFA salt] | > 7.60 |
| O=C1N2[C@@H](CC[C@H]2c2cccc(F)c2)OC12CCN(c1ncnc3ccnn13)CC2 [Example 4.204, (5′S,7a′R)-5′-(3-fluorophenyl)-1-(pyrazolo[1,5-a] [1,3,5]triazin-4-yl)tetrahydro-3′H-spiro[piperidine-4,2′-pyrrolo[2,1-b] [1,3]oxazol]-3′-one] | > 7.60 |
| O=C(c1ccccc1F)N1CCC2(CC1)O[C@@H]1CC[C@@H](c3cccc(F)c3)N1C2=O [Example 1.7, (5′S,7a′R)-1-(2-fluorobenzene-1-carbonyl)-5′-(3-fluorophenyl)tetrahydro-3′H-spiro[piperidine-4,2′-pyrrolo[2,1-b] [1,3]oxazol]-3′-one] | > 7.60 |
| O=C(c1cnn2ccccc12)N1CCC2(CC1)O[C@@H]1CC[C@@H](c3cc(F)cc(F)c3)N1C2=O [Example 5.72, (5′S,7a′R)-5′-(3,5-difluoro-phenyl)-1-(pyrazolo[1,5-a]-pyridine-3-carbonyl)tetra-hydro-3′H-spiro[piperidine-4,2′-pyrrolo[2,1-b]oxazol]-3′-one] | 7.51 |
| COc1nccc(N2CCC3(CC2)O[C@@H]2CC[C@@H](c4ccccc4)N2C3=O)n1 [Example 4.17, (5′S,7a′R)-1-(2-methoxypyrimidin-4-yl)-5′-phenyltetrahydro-3′H-spiro[piperidine-4,2′-pyrrolo[2,1-b] [1,3]oxazol]-3′-one] | > 7.60 |
